{
  "source": "patent US11439641B2",
  "about": "“Pyrimidine JAK inhibitors for the treatment of skin diseases” (THERAVANCE BIOPHARMA R&D IP, LLC, priority 2019, dated 2022)",
  "test": "physchem",
  "conditions": "thermodynamic from solid",
  "data": [
    {"smiles": "COC(=O)N1[C@@H]2CCC[C@H]1C[C@H](N(C)c1nc(Nc3cc(C)[nH]n3)cc(O[C@@H]3CCOC3)n1)C2", "note": "[Compound 23]", "values": [
      {"measurement": "solubility at 4 h", "setting": "oil or lipid, Solubility in MCT (mg/mL)", "value": "5000 to 10000", "unit": "µg/mL"},
      {"measurement": "solubility at 4 h", "setting": "organic solvent or mixture, Solubility in Diisopropyl adipate (mg/mL)", "value": "> 10000", "unit": "µg/mL"},
      {"measurement": "solubility at 4 h", "setting": "organic solvent or mixture, Solubility in PEG400 (mg/mL)", "value": "5000 to 10000", "unit": "µg/mL"},
      {"measurement": "solubility at 4 h", "setting": "organic solvent or mixture, Solubility in Propylene glycol (mg/mL)", "value": "> 10000", "unit": "µg/mL"}
    ]}
  ]
}
